Assay results published in PMC6018554, “2-[2-(4-(trifluoromethyl)phenylamino)thiazol-4-yl]acetic acid (Activator-3) is a potent activator of AMPK” (Scientific Reports, 2018).
Entries after “also recorded” stand apart in the source; their conditions may differ. Read-outs that look alike come from different tables or passages of the source.

How the values were obtained:
[1] = biological target: T1, recombinant human AMPK α2β2γ2 (Homo sapiens, UniProt Q9UGJ0); test: In vitro AMP kinase assay (pACC ELISA), α2β2γ2; format: biochemical
T1 construct: purchased SignalChem; host or cells: baculovirus expression
T1 sequence (Q9UGJ0 whole entry): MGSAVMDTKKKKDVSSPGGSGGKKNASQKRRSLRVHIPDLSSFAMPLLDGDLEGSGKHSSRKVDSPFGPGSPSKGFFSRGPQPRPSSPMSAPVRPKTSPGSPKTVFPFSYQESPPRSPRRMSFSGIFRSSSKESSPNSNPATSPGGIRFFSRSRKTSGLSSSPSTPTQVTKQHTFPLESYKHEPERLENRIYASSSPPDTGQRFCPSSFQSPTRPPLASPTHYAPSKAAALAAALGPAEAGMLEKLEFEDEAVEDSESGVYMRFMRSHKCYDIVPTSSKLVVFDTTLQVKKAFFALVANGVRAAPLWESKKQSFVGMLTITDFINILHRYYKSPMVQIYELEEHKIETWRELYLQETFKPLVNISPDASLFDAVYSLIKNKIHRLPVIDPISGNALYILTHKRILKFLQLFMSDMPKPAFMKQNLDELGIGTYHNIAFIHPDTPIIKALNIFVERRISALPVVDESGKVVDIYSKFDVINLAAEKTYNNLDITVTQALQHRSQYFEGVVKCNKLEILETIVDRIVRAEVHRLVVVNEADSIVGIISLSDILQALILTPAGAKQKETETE
T1 sequence (P54646 whole entry partner): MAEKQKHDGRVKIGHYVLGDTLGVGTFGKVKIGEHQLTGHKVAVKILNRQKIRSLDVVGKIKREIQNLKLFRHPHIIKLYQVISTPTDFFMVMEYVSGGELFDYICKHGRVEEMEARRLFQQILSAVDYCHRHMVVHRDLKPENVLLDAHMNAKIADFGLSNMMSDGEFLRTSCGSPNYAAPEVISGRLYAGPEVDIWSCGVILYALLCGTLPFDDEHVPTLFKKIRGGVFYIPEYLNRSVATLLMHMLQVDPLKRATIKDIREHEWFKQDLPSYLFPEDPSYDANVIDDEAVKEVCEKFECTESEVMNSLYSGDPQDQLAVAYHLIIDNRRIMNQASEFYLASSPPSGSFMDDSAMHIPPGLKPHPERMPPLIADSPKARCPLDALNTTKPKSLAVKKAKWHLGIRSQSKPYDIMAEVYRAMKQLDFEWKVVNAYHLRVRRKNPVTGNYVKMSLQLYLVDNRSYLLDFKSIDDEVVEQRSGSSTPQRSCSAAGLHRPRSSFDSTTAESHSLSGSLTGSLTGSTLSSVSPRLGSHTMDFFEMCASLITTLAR
T1 sequence (O43741 whole entry partner): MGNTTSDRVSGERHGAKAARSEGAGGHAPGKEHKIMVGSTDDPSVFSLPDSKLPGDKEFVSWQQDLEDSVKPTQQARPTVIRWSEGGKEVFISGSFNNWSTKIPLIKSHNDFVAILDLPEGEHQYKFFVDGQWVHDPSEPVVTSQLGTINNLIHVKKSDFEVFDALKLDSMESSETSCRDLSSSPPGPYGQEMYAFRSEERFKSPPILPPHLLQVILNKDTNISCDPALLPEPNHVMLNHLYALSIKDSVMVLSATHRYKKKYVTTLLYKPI
Excerpt: (§1) Having observed the effect of Activator-3 on the activation of AMPK in cell based assays, we next examined whether Activator-3 could activate AMPK directly or not. […] The activity of recombinant human AMPK (α1β1γ1, α2β1γ1, α2β2γ2 and α2β2γ3) in the presence of vehicle was considered as 100%. The EC50 of Activator-3 for the activation of α1β1γ1, α2β1γ1 and α2β2γ2 isozymes were similar. However, the activity of Activator-3 against α2β2γ3 was marginally higher (Fig. 1C).
(§2) A high binding Enzyme Immuno Assay (EIA) 96-well plate (Sigma: Cat# CLS3590) was coated with Acetyl CoA Carboxylase 2 (ACC: 175–271 amino acids) peptide, a direct substrate for AMPK, 100 ng per well (1:1000 ratio, Cat# 12–491, Upstate biotechnology) and incubated overnight at 25 °C. Reaction mixture was incubated at 30 °C for 2 h and reaction was stopped by washing the plate with 0.05% Tween 20 followed by incubation with pACC primary antibody and rabbit secondary antibody as described in cell based ELISA section. Assay buffer is composed of 10 mM DTT, 100 mM magnesium acetate, 50 μM ATP and 10 mM HEPES.

DDR1 = biological target: T2, DDR1 (Homo sapiens, UniProt Q08345); test: Cell-free kinase panel (Kinexus); format: biochemical; conditions: 10 µM
T2 construct: purchased Kinexus, Canada (screening service)
T2 sequence (Q08345 19-913, species assumed): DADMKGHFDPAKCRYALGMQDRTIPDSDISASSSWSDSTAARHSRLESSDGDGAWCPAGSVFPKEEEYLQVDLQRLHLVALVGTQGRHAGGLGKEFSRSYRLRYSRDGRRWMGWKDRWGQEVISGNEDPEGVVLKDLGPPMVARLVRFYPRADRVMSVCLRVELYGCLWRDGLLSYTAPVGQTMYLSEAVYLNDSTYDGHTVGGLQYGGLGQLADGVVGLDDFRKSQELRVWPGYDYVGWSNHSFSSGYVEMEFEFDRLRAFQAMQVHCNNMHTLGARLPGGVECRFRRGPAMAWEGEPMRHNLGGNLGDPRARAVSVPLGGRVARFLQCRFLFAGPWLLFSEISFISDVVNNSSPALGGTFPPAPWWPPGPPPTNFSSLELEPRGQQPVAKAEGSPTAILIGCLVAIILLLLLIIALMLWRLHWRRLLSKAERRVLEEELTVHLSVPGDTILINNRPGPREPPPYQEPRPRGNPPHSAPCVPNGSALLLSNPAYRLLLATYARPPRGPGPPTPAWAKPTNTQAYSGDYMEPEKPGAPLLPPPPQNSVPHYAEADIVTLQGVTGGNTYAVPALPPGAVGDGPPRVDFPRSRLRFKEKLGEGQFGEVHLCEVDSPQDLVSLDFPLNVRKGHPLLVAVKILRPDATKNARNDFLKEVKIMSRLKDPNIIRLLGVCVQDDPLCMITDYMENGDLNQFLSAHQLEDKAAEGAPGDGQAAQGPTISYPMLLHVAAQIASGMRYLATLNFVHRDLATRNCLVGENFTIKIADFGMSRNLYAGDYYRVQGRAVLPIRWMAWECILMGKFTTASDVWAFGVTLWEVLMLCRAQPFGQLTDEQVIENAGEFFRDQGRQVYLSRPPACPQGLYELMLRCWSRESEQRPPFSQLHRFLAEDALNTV
Procedure: (§3) To determine whether Activator-3 affects the activity of any other protein kinases, we screened it in cell-free assays against a panel of 100 protein kinases (Kinexus, Canada). […] Three kinases, DDR1 (−79%), SRC (−71%) and ALK5 (−61%) were inhibited by Activator-3 by more than 50% at 10 µM.

ROR2 = biological target: T3, ROR2 (Homo sapiens, UniProt Q01974); test: Cell-free kinase panel (Kinexus); format: biochemical; conditions: 10 µM
T3 construct: purchased Kinexus, Canada (screening service)
T3 sequence (Q01974 34-943, species assumed): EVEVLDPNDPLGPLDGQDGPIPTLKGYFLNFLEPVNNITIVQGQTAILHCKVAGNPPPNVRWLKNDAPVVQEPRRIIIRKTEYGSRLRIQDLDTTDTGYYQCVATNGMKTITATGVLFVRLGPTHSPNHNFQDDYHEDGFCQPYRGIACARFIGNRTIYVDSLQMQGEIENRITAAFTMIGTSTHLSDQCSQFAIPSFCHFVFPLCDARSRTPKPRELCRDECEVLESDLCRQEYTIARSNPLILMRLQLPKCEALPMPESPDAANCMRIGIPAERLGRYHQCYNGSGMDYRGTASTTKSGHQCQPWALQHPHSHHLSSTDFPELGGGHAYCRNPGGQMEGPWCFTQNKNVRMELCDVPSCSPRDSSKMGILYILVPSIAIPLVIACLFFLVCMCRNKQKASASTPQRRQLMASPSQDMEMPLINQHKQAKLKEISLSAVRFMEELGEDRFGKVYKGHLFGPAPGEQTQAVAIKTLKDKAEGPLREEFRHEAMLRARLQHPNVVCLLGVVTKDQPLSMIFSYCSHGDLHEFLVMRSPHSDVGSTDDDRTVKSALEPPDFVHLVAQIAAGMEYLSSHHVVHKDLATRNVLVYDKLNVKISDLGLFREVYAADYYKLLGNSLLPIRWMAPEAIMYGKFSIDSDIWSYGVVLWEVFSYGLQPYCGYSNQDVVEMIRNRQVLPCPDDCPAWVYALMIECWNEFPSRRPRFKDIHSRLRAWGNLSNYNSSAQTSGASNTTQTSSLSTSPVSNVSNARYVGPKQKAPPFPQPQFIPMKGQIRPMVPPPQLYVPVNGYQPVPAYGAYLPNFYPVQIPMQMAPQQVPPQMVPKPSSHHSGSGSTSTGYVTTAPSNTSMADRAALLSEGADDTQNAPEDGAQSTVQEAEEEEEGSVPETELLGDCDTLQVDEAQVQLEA
Procedure: as §3

TAK1 = biological target: T4, TAK1 (Homo sapiens, UniProt O43318); test: Cell-free kinase panel (Kinexus); format: biochemical; conditions: 10 µM
T4 construct: purchased Kinexus, Canada (screening service)
T4 sequence (O43318 1-303 limits assumed): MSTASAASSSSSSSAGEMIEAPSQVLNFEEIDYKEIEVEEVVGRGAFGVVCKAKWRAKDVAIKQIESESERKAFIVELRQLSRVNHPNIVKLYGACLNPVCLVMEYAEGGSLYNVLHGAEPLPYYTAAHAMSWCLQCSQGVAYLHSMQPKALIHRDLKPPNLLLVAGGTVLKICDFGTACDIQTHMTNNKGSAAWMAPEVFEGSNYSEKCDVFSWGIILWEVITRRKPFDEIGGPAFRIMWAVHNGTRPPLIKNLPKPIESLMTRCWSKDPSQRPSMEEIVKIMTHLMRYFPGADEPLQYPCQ
Procedure: as §3

[2] = Pharmacokinetic study in male rats; format: in vivo, rat
Procedure: Male SD rats were orally administered 30 mg/Kg of Activator-3. Blood and brain samples were collected at specified time points and were analyzed for Activator-3 using a LC-MS/MS method[64]–[66]. […] The human plasma protein binding was ~80% (data not shown). […] Systemic exposure of Activator-3 was very high in plasma compared to brain.
Male SD rats were orally administered with 30 mg/Kg of Activator-3. Blood and brain samples were collected at specified time points and were analyzed for Activator-3 using optimized LC-MS/MS method[64]–[66].

HSD fed diabetic rats = test: HSD fed insulin resistant diabetic rats; format: in vivo, rat
Procedure: Approximately 100 mg of soleus muscle tissue was taken and lysed with RIPA lysis buffer. Lysates were resolved on 12% SDS–polyacrylamide gels and were transferred to PVDF membrane (Millipore, USA). Membrane was blocked with 5% nonfat milk in TRIS buffered saline (TBS; 10 mM TRIS (pH 8.0), 150 mM NaCl) for 1 hour and probed with primary antibody of interest: phospho-AMPK (Thr^172) (1:1000; Cell Signaling Technology, USA), phospho-ACC (Ser^79) (1:1000; Cell Signaling Technology, USA), total AMPK (1:1000; Cell Signaling Technology, USA), total ACC (1:1000; Cell Signaling Technology, USA), and total Actin (1:1000; Santa Cruz Biotechnology, USA). Subsequently, membranes were incubated with corresponding HRP-conjugated secondary antibodies. The chemiluminescence signals were captured on photographic films using an enhanced chemiluminescence (Thermo Scientific, USA).The loading controls of phospho-ACC and phospho-AMPK in Fig. 6J were probed in parallel gels.
Twelve weeks old healthy colony bred male Wistar rats, weighing about 150–200 grams were purchased from the animal research facility (Cadila Pharma limited, Ahmedabad, India) and maintained at the animal house of Institute of pharmacy (Nirma University, India). All the methods were carried out in accordance with the approved guidelines. Experimental protocol involving animals was reviewed and approved by the Animal Ethical Committee of Institute of Science, Nirma University, Ahmedabad, India (Protocol No. IS/FAC/14-1/021) Animals were maintained in polypropylene cages in a standard photoperiod (12 h light:12 h dark cycle) and temperature (27 ± 1 °C) controlled room with the provision of laboratory food (Gold Mohur feeds Ltd, New Delhi, India) and water ad libitum. Animals were segregated into three different experimental groups with 6 animals in each as follows: non-diabetic group with standard chow diet (control group, CD), Diabetic group with high sucrose diet (65%, treated group, HSD)[84] and HSD with AMPK Activator-3 treated group (10 mg/kg body weight of animal). Post HSD induction animals were treated with AMPK Activator-3 for 30 days.
Animals were subjected to an OGTT at a beginning of the treatment (0 day) and a day before the end of the experiment (30 day). OGTT was performed after 12 h of the fasting. Briefly, after fasting, animals were given a glucose load (2 g/kg) orally. Blood samples were collected from the animal tail vein at 0 min (before glucose administration) and at 15, 30, 60, 90 and 120 min after glucose administration. Glucose concentration was determined using a CareSensN blood glucose monitor and glucose strips. Area under the curve for glucose (AUCglucose) was calculated using the trapezoidal rule.
Approximately, 1 ml of the blood samples was collected from the retro-orbital plexus of the animals under the mild anesthesia using diethyl ether. Blood was then transferred to the microfuge tubes for separation of plasma and serum at 0 day (start of the treatment) and the last day of the experiment (30 day). Total cholesterol and triglycerides levels were estimated from plasma using a diagnostic kit from Accucare India Ltd according to the protocol mentioned by the manufacturer.
Plasma FFA was estimated using chloroform and triethyalanomine extraction method by measuring the absorbance at 440 nm. The stearic acid was used as standard fatty acid and detailed protocol was performed as mentioned[85],[86]. […]

[3] = biological target: human recombinant AMPK α2β1γ1 (Homo sapiens, UniProt P54619); test: In vitro AMP kinase assay (pACC ELISA), α2β1γ1; format: biochemical; set-up: purchased SignalChem P47-10H-05/P48-10H-05 (for all four isozymes together); host or cells: baculovirus expression
Sequence of human recombinant AMPK α2β1γ1 (P54619 whole entry): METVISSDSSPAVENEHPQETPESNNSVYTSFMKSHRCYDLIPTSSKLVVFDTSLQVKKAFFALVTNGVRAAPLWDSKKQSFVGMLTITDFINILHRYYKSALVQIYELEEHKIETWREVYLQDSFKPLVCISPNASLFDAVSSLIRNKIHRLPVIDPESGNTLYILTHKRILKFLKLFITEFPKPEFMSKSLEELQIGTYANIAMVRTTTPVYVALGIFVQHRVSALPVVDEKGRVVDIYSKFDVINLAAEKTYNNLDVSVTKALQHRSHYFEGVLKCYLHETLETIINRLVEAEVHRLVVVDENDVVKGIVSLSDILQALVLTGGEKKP
Sequence of human recombinant AMPK α2β1γ1 (P54646 whole entry partner): as the sequence (P54646 whole entry partner) above
Sequence of human recombinant AMPK α2β1γ1 (Q9Y478 whole entry partner): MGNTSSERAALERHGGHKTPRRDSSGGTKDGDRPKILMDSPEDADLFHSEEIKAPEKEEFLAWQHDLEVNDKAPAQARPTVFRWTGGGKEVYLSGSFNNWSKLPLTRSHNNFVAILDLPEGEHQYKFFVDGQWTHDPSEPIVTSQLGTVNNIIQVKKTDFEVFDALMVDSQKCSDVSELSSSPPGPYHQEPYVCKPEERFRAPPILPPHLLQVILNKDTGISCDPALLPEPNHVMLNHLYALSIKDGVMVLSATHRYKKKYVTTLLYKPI
Excerpt: as §1, §2

[4] = Activator-3 1 nM to 10 μM with 100 µM AMP
[5] = 10 mg/kg oral once a day, 30th day

With `O=C(O)Cc1csc(Nc2ccc(C(F)(F)F)cc2)n1` [Activator-3, 2-[2-(4-(trifluoromethyl)phenylamino)thiazol-4-yl]acetic acid] as the compound, how does the “change of AMPK activity stimulated by 100 µM AMP” value [1, 4] read?
Its value is “minimal decrease”.

And the EC50 ([1]; read-out: EC50 allosteric activation hα2β2γ2)?
Its EC50 is about 26 nM.

And the activity change (DDR1)?
Its activity change is −79%.

And the activity change (ROR2)?
Its activity change is −35%.

What about the “effect on kinase activity” value (TAK1) of the same compound?
Its value is “not affected”.

And the t1/2 ([2]; male SD rats, oral 30 mg/Kg, plasma, 30 mg/kg)?
Its t1/2 is ~ 4 h.

And the “level in brain / brain penetration” value ([2]; male SD rats, oral 30 mg/Kg, 30 mg/kg)?
The value was “No significant level; also recorded: no brain penetration”.

What about the half-life ([2]; male, SD, rat, plasma, po, 30 mg/kg, male SD rats, oral 30 mg/Kg) of the same compound?
The half-life was 4.11 h.

And the bioavailability ([2]; rat, oral)?
The bioavailability was “good bioavailability”.

What about the Cmax ([2]; rat, plasma, male SD rats, oral 30 mg/Kg, read-out: Cmax in plasma) of the same compound?
Its Cmax is about 109 µg/mL.

What about the Cmax ([2]; rat, plasma, male SD rats, oral 30 mg/Kg, read-out: Cmax in plasma, molar) of the same compound?
Its Cmax is about 360 µM.

What about the AUC ([2]; rat, plasma, male SD rats, oral 30 mg/Kg, read-out: Systemic exposure in plasma (AUC)) of the same compound?
The AUC was about 978 µg·h/mL.

And the AUC ([2]; rat, plasma, male SD rats, oral 30 mg/Kg, read-out: Systemic exposure in plasma (AUC), molar)?
Its AUC is about 3300 µM·h.

And the “glucose concentration in OGTT vs HSD group” value (HSD fed diabetic rats; [5])?
The value was “significantly reduced”.

And the “plasma free fatty acid vs HSD group” value (HSD fed diabetic rats; [5])?
Its value is “significantly lower”.

What about the “plasma total cholesterol vs HSD group” value (HSD fed diabetic rats; [5]) of the same compound?
The value was “significantly lower”.

And the “HSD induced body weight gain” value (HSD fed diabetic rats; 10 mg/kg oral once a day, 30 days, p < 0.05)?
The value was “decreased”.

What about the “phosphorylation of AMPK and ACC in soleus muscle” value (HSD fed diabetic rats; 10 mg/kg/day for 30 days, western blot) of the same compound?
Its value is “restored”.

What about the “reduction of AMPK activity stimulated by 100 µM AMP” value [3, 4] of the same compound?
The value was ~ 50%.

And the EC50 ([3]; read-out: EC50 allosteric activation hα2β1γ1)?
The EC50 was about 23 nM.
